This note sets out measurements from ChEMBL document CHEMBL4402571, “Methylation of Daptomycin Leading to the Discovery of Kynomycin, a Cyclic Lipodepsipeptide Active against Resistant Pathogens” (J Med Chem, 2020).

Data set [1] deals with Staphylococcus aureus. Description: Antibacterial activity against methicillin-resistant Staphylococcus aureus SA11 by broth microdilution method. The data set is classed as functional. A general note: Broth dilution looks for growth in wells or tubes with falling amounts of substance.
Data set [2] deals with Staphylococcus aureus. Description: Antibacterial activity against methicillin-resistant Staphylococcus aureus SA86 by broth microdilution method. It counts as functional.
For data set [3], the system named is Enterococcus faecalis. Description: Antibacterial activity against Streptococcus faecalis by broth microdilution method. The data set is classed as functional.
Data set [4] has as its system Enterococcus faecalis. Description: Antibacterial activity against Enterococcus faecalis ATCC 29212 by broth microdilution method. The data set is classed as functional.
The test system of data set [5] is Staphylococcus aureus. Description: Antibacterial activity against methicillin-resistant Staphylococcus aureus SA88 by broth microdilution method. It counts as functional.
Data set [6] has as its system Staphylococcus aureus. Put plainly: Antibacterial activity against Staphylococcus aureus ATCC 29213 by broth microdilution method. The data set is classed as functional.
Data set [7] relates to Staphylococcus aureus. Description: Antibacterial activity against methicillin-resistant Staphylococcus aureus SA14 by broth microdilution method. The data set is classed as functional.
Data set [8] has as its system Enterococcus faecium. Description: Antibacterial activity against Enterococcus faecium ET6 by broth microdilution method. It counts as functional.
For data set [9], the system named is Enterococcus faecium. Description: Antibacterial activity against Enterococcus faecium ET60 by broth microdilution method. The data set is classed as functional.
In another data set the test system is HEK293. Description: Cytotoxicity against HEK293 cells assessed as reduction in cell viability at >= 20 mg/ml measured after 24 hrs by MTT assay. It counts as cell-based. To be noted: human, hek293, 24 h. For orientation: Formazan colour is commonly taken as a measure of viable cells.
The test system of another data set is Erythrocyte. Description: Hemolytic activity against rat RBC at 320 ug/ml measured after 1 hr. The data set is classed as ADME, cell-based.
Data set [10] can be described thus: Aqueous solubility of the compound in 0.9% NaCl at >= 100 measured after 15 mins. The data set is classed as physicochemical. To be noted: buffer, 0.25 h.
Data set [11] has as its system Staphylococcus aureus. Description: Antibacterial activity against Staphylococcus aureus ATCC 29213 assessed as mutation prevention concentration measured after 72 hrs. To be noted: ATCC 29213, 72 h. The data set is classed as functional.
The test system of data set [12] is Enterococcus faecalis. Description: Antibacterial activity against Enterococcus faecalis ATCC 29212 assessed as mutation prevention concentration measured after 72 hrs. The data set is classed as functional. To be noted: ATCC 29212, 72 h.
The test system of data set [13] is Staphylococcus aureus. Put plainly: Antibacterial activity against methicillin-resistant Staphylococcus aureus ATCC 33591 infected in iv dosed CD-1 ICR mouse administered as single dose measured after 7 days. The data set is classed as functional. The conditions noted are these: ATCC 33591, iv, 168 h.
In data set [14] the test system is Enterococcus faecalis. Description: Antibacterial activity against Enterococcus faecalis T1027 infected in Galleria mellonella larvae assessed as larvae survival at 50 mg/kg measured at 96 hrs post-infection relative to control. The conditions noted are these: T1027, 96 h. The data set is classed as functional.
Data set [15] has as its system Staphylococcus aureus. Put plainly: Antibacterial activity against Staphylococcus aureus USA300 infected in Balb/c mouse model of sepsis assessed as mouse survival at 0.925 mg/kg, sc administered twice daily for 5 days starting from 1 hr post-infection relative to control. It counts as functional.
Data set [16] deals with Staphylococcus aureus. Description: Bactericidal activity against Staphylococcus aureus ATCC 29213 incubated prior to replating on agar plate measured after overnight incubation. It counts as functional.
The test system of data set [17] is Staphylococcus aureus. Put plainly: Antibacterial activity against methicillin-resistant Staphylococcus aureus 0114 infected in iv dosed CD-1 ICR mouse administered as single dose measured after 7 days. It counts as functional. The conditions noted are these: Staphylococcus aureus, 0114, iv, 168 h.
Data set [18] has as its system Enterococcus faecalis. Put plainly: Antibacterial activity against Enterococcus faecalis ZS129 infected in Galleria mellonella larvae assessed as larvae survival at 50 mg/kg measured at 96 hrs post-infection relative to control. It counts as functional. The conditions noted are these: ZS129, 96 h.
Data set [19] deals with Enterococcus faecalis. Description: Bactericidal activity against Enterococcus faecalis ATCC 29212 incubated prior to replating on agar plate measured after overnight incubation. The data set is classed as functional.
For data set [20], the system named is Staphylococcus aureus. Put plainly: Induction of cell membrane integrity disruption in Staphylococcus aureus ATCC 29213 at 8 ug/ml measured after 0.5 to 2 hrs by SYTOX green staining based fluorescence assay. It counts as organism-based.
Data set [21] relates to Staphylococcus aureus. Put plainly: Antibacterial activity against daptomycin-resistant Staphylococcus aureus SA11 infected in NIH mouse model of neutropenic thigh infection assessed reduction in bacterial level in thigh at 50 mg/kg, sc administered at 2 and 12 hrs post infection and measured at 48 to 60 hrs post-infection. It counts as functional, organism-based.
The subject of data set [22] is Enterococcus faecalis. Description: Antibacterial activity against Enterococcus faecalis ATCC 29212 at sub-MIC after 7 serial passages by broth microdilution method. It counts as functional, organism-based.
Data set [23] relates to Enterococcus faecalis. Description: Antibacterial activity against daptomycin-resistant Enterococcus faecalis T1027 infected in NIH mouse model of neutropenic thigh infection assessed reduction in bacterial level in thigh at 50 mg/kg, sc administered at 2 and 12 hrs post infection and measured at 48 to 60 hrs post-infection. It counts as functional, organism-based.
Data set [24] deals with Staphylococcus aureus. Description: Bactericidal activity against Staphylococcus aureus ATCC 29213 assessed as reduction in bacterial load at 4 to 8 ug/ml preincubated for up to 24 hrs followed by subculturing on LB agar plate by time-kill assay. The data set is classed as functional, organism-based.
Data set [25] concerns Enterococcus faecalis. Description: Induction of cell membrane integrity disruption in Enterococcus faecalis ATCC 29212 at 16 ug/ml measured after 1 hr by SYTOX green staining based confocal laser scanning microscopic analysis. The data set is classed as organism-based.
Data set [26] deals with Staphylococcus aureus. Description: Antibacterial activity against Staphylococcus aureus ATCC 29213 at sub-MIC after 7 serial passages by broth microdilution method. It counts as functional, organism-based.
The subject of data set [27] is Staphylococcus aureus. Put plainly: Antibacterial activity against daptomycin-resistant Staphylococcus aureus SA11 infected in Galleria mellonella larvae assessed as increase in larvae survival at 50 mg/kg measured up to 72 hrs post-infection. The data set is classed as functional, organism-based.
Data set [28] relates to Staphylococcus aureus. Description: Antibacterial activity against Staphylococcus aureus USA300 infected in Balb/c mouse model of sepsis assessed as bacterial eradication in kidney at 1.25 mg/kg, sc administered twice daily for 3 days starting from 1 hr post-infection followed by subculturing on LB agar plate and measured after overnight incubation. It counts as functional, organism-based.

Data set [29] deals with Staphylococcus aureus. Put plainly: Antibacterial activity against methicillin-resistant Staphylococcus aureus ATCC 43300 infected in Galleria mellonella larvae assessed as increase in larvae survival at 50 mg/kg measured up to 72 hrs post-infection. It counts as functional, organism-based.
For data set [30], the system named is Staphylococcus aureus. Put plainly: Bactericidal activity against Staphylococcus aureus ATCC 29213 assessed as reduction in bacterial load at 16 ug/ml preincubated for 24 hrs followed by subculturing on LB agar plate by time-kill assay. The data set is classed as functional, organism-based.
In data set [31] the test system is Enterococcus faecalis. Description: Induction of cell membrane integrity disruption in Enterococcus faecalis ATCC 29212 at 8 to 32 ug/ml measured after 0.5 to 2 hrs by SYTOX green staining based fluorescence assay. It counts as organism-based.
The subject of data set [32] is Enterococcus faecalis. Description: Bactericidal activity against Enterococcus faecalis ATCC 29212 assessed as reduction in bacterial load at 4 to 16 ug/ml preincubated for up to 24 hrs followed by subculturing on LB agar plate by time-kill assay. The data set is classed as functional, organism-based.

≈ marks a conversion by molar mass, not a printed value. Calls of active or inactive are those of the source.

The MIC is the least concentration at which growth counts as inhibited. Low readings indicate a more susceptible organism, high ones a less susceptible organism. Turning to `CCCCCCCCCC(=O)N[C@@H](Cc1c[nH]c2ccccc12)C(=O)N[C@@H](CC(N)=O)C(=O)N[C@@H](CC(=O)O)C(=O)N[C@@H]1C(=O)N(C)CC(=O)N[C@@H](CCCN)C(=O)N[C@@H](CC(=O)O)C(=O)N[C@H](C)C(=O)N[C@@H](CC(=O)O)C(=O)NCC(=O)N[C@H](CO)C(=O)N[C@@H]([C@H](C)CC(=O)O)C(=O)N[C@@H](CC(=O)c2ccccc2N)C(=O)O[C@@H]1C`, the MIC against Staphylococcus aureus [1] was 0.5 µg/mL (≈ 0.306 µM); with Staphylococcus aureus [2] it was 0.5 µg/mL (≈ 0.306 µM); in the data set with Enterococcus faecalis [3] it was 2 µg/mL (≈ 1.22 µM); against Enterococcus faecalis [4], 8 µg/mL (≈ 4.89 µM); against Staphylococcus aureus [5], 0.5 µg/mL (≈ 0.306 µM); in the data set with Staphylococcus aureus [6], 0.5 µg/mL (≈ 0.306 µM). Further, the results for the MIC in the data set on Staphylococcus aureus [7], in the data set with Enterococcus faecium [8] and with Enterococcus faecium [9] were 0.25 µg/mL (≈ 0.153 µM), 8 µg/mL (≈ 4.89 µM) and 4 µg/mL (≈ 2.45 µM), respectively.
Regarding `CCCCCCCCCC(=O)N[C@@H](Cc1c[nH]c2ccccc12)C(=O)N[C@H](CC(N)=O)C(=O)N[C@@H](CC(=O)O)C(=O)N[C@@H]1C(=O)NCC(=O)N[C@@H](CCCN)C(=O)N[C@@H](CC(=O)O)C(=O)N[C@H](C)C(=O)N[C@@H](CC(=O)O)C(=O)NCC(=O)N[C@H](CO)C(=O)N[C@@H]([C@@H](C)CC(=O)O)C(=O)N[C@@H](CC(=O)c2ccccc2N)C(=O)O[C@@H]1C`, the Activity result with HEK293 is “Toxic”; in the data set on Erythrocyte, “Non-Toxic”. Further, in data set [10], the solubility result is listed as “Soluble”.
Usually ED50 stands for the midpoint of the dose-response relation. Lower therefore signals an effect at a small dose. A word on the MBC: it is the smallest concentration meeting the test's criterion for killing. Higher therefore signals weaker bactericidal potency. For the molecule `CCCCCCCCCC(=O)N[C@@H](Cc1c[nH]c2ccccc12)C(=O)N[C@H](CC(N)=O)C(=O)N[C@@H](CC(=O)O)C(=O)N[C@@H]1C(=O)NCC(=O)N[C@@H](CCCN)C(=O)N[C@@H](CC(=O)O)C(=O)N[C@H](C)C(=O)N[C@@H](CC(=O)O)C(=O)NCC(=O)N[C@H](CO)C(=O)N[C@@H]([C@H](C)CC(=O)O)C(=O)N[C@@H](CC(=O)c2ccccc2NC)C(=O)O[C@@H]1C`, the MIC against Staphylococcus aureus [1] was determined as 0.5 µg/mL (≈ 0.306 µM); in the data set with Staphylococcus aureus [2] it was 0.25 µg/mL (≈ 0.153 µM); in the data set with Enterococcus faecalis [3], 0.5 µg/mL (≈ 0.306 µM); in the data set with Enterococcus faecalis [4], 1 µg/mL (≈ 0.612 µM); in the data set with Staphylococcus aureus [5], 0.25 µg/mL (≈ 0.153 µM); against Staphylococcus aureus [6], 0.25 µg/mL (≈ 0.153 µM). In addition, the MIC in the data set on Staphylococcus aureus [7] was 0.25 µg/mL (≈ 0.153 µM); with Enterococcus faecium [8], 1 µg/mL (≈ 0.612 µM); with Enterococcus faecium [9] it was 1 µg/mL (≈ 0.612 µM). Also, the MPC stood at 8 µg/mL with Staphylococcus aureus [11] and 16 µg/mL in the data set with Enterococcus faecalis [12]. The ED50 in the data set with Staphylococcus aureus [13] came to 1.38 mg/kg; with Staphylococcus aureus [17], 1.65 mg/kg. The survival at 50 mg/kg in the data set on Enterococcus faecalis [14] stood at 60%; in the data set with Enterococcus faecalis [18] it was 40%. The survival at 0.925 mg/kg in the data set with Staphylococcus aureus [15] is 100%. The results for the MBC in the data set on Staphylococcus aureus [16] and with Enterococcus faecalis [19] were 0.06 µg/mL (≈ 0.0367 µM) and 4 µg/mL (≈ 2.45 µM), respectively.
As for `CCCCCCCCCC(=O)N[C@@H](Cc1c[nH]c2ccccc12)C(=O)N[C@@H](CC(N)=O)C(=O)N[C@@H](CC(=O)O)C(=O)N[C@@H]1C(=O)NCC(=O)N[C@@H](CCCN)C(=O)N[C@@H](CC(=O)O)C(=O)N[C@H](C)C(=O)N[C@@H](CC(=O)O)C(=O)NCC(=O)N[C@H](CO)C(=O)N[C@@H]([C@H](C)CC(=O)O)C(=O)N[C@@H](CC(=O)c2ccccc2NC)C(=O)O[C@@H]1C`, the outcome with Staphylococcus aureus [20], in the data set on Staphylococcus aureus [21], in the data set on Enterococcus faecalis [23], in the data set with Staphylococcus aureus [24], in the data set with Enterococcus faecalis [25] and in the data set on Staphylococcus aureus [26] was Active. Moreover, the result in the data set on Staphylococcus aureus [27], in the data set on Staphylococcus aureus [28], with Staphylococcus aureus [29], in the data set on Staphylococcus aureus [30], with Enterococcus faecalis [31] and with Enterococcus faecalis [32] was Active. In addition, the outcome in the data set on Enterococcus faecalis [22] was inactive.
